From PubChem BioAssay AID602207 (Sanford-Burnham Center for Chemical Genomics, 2012)
Activity calls are given as the source filed them.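 Rule for the calls: active = IC50 below 100 µM in the TR-FRET assay, unless also active in the caspase-3 counter assay; inactive = the rest, including compounds also active in caspase-3.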

Target: Caspase-3 (Homo sapiens) (UniProt P42574)
Assay: caspase-3 inhibitors as false-positive filter, SAR follow-up, counter-screen for UBC13 polyubiquitin inhibitor project, biochemical, luminescence, Caspase-Glo 3/7, set 3 (AID 602207)
Details: recombinant caspase-3, Caspase-Glo luminescence, 60 min

Chain of Caspase-3 (Homo sapiens) (P42574 whole entry, looked up): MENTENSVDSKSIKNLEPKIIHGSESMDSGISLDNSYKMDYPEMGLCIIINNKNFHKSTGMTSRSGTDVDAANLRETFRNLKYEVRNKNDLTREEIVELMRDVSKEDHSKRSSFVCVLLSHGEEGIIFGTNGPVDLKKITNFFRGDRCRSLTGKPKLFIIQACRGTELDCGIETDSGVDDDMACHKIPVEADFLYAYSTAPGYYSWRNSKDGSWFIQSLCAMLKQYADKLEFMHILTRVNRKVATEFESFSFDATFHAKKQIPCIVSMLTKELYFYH

SMILES	IC50
Cc1cc(Cl)ccc1NC(=O)C1CCN(c2ncnc3c2nc2n3CCCCC2)CC1	> 100 µM (inactive)
Cc1ccc(NC(=O)C2CCN(c3ncnc4c3nc3n4CCCCC3)CC2)cc1C	> 100 µM (inactive)
Cc1ccc(NC(=O)C2CCN(c3ncnc4c3nc3n4CCCCC3)CC2)c(Cl)c1	> 100 µM (inactive)
Cc1ccc(Cl)cc1N1CCN(c2ncnc3c2nc2n3CCCC2)CC1	> 100 µM (inactive)
c1nc(N2CCC(N3CCCCC3)CC2)c2nc3n(c2n1)CCCC3	> 100 µM (inactive)
Cc1ccc(NC(=O)C2CCN(c3ncnc4c3nc3n4CCCCC3)CC2)cc1F	> 100 µM (inactive)
O=C(Nc1cc(F)ccc1F)C1CCN(c2ncnc3c2nc2n3CCCCC2)CC1	> 100 µM (inactive)
Fc1ccccc1N1CCN(c2ncnc3c2nc2n3CCCC2)CC1	> 100 µM (inactive)
COc1ccc(NC(=O)C2CCN(c3ncnc4c3nc3n4CCCCC3)CC2)cc1Cl	> 100 µM (inactive)
c1ccc(CN2CCN(c3ncnc4c3nc3n4CCCC3)CC2)cc1	> 100 µM (inactive)
O=C(Nc1ccc(CN2CCCCC2)cc1)C1CCN(c2ncnc3c2nc2n3CCCCC2)CC1	> 100 µM (inactive)
COc1cc(OC)c(NC(=O)C2CCN(c3ncnc4c3nc3n4CCCCC3)CC2)cc1Cl	> 100 µM (inactive)
CC1CN(S(=O)(=O)c2ccc(NC(=O)CCCCCN3C(=O)c4ccccc4C3=O)cc2)CC(C)O1 (centres undefined)	> 100 µM (inactive)
CCOc1ccc(CCNC(=O)CCCCCN2C(=O)c3ccccc3C2=O)cc1OCC	> 100 µM (inactive)
O=C(Nc1cccc(Cl)c1)C1CCN(c2ncnc3c2nc2n3CCCCC2)CC1	> 100 µM (inactive)
O=C(CCCCCN1C(=O)c2ccccc2C1=O)NCCc1ccccc1	> 100 µM (inactive)
COc1cc(Cl)c(C)cc1NC(=O)C1CCN(c2ncnc3c2nc2n3CCCCC2)CC1	> 100 µM (inactive)
COc1ccc(Cl)cc1NC(=O)C1CCN(c2ncnc3c2nc2n3CCCCC2)CC1	> 100 µM (inactive)
Cc1c(Cl)cccc1NC(=O)C1CCN(c2ncnc3c2nc2n3CCCCC2)CC1	> 100 µM (inactive)
